How the values were obtained:
[1] = test system: T1, IRAK4; assay: KiNativ profiling in human PBMCs; assay type: binding
T1 construct: purchased ActivX Technologies (KiNativ)
Method: (§1) Compounds were shipped to ActivX Technologies (San Diego, US) where LRRK2 target engagement and broad kinase profiling was performed using KiNativ™ procedures. Live cell treatment of human peripheral blood mononuclear cells (PBMCs) at two compound concentrations (1 µM and 0.1 µM) were used to evaluate and compare in vitro target engagement and kinase selectivity, respectively (see Supplementary File 1).

[2] = test system: p70S6K,p70S6Kb; assay: KiNativ profiling in human PBMCs; assay type: binding; conditions: ATP Loop
Method: as §1

[3] = test system: T2, ULK3; assay: KiNativ profiling in human PBMCs; assay type: binding
T2 construct: purchased ActivX Technologies (KiNativ)
Method: as §1

[4] = test system: T3, LOK; assay: KiNativ profiling in human PBMCs; assay type: binding
T3 construct: purchased ActivX Technologies (KiNativ)
Method: as §1

[5] = test system: T4, MAP3K4; assay: KiNativ profiling in human PBMCs; assay type: binding; conditions: Lys2
T4 construct: purchased ActivX Technologies (KiNativ)
Method: as §1

[6] = test system: MARK2,MARK3; assay: KiNativ profiling in human PBMCs; assay type: binding; conditions: Lys2
Method: as §1

[7] = test system: T5, SMG1; assay: KiNativ profiling in human PBMCs; assay type: binding; conditions: ATP
T5 construct: purchased ActivX Technologies (KiNativ)
Method: as §1

[8] = test system: FYN,SRC,YES; assay: KiNativ profiling in human PBMCs; assay type: binding; conditions: Activation Loop
Method: as §1

[9] = test system: T6, FES; assay: KiNativ profiling in human PBMCs; assay type: binding; conditions: Lys1
T6 construct: purchased ActivX Technologies (KiNativ)
Method: as §1

[10] = test system: T7, KSR1; assay: KiNativ profiling in human PBMCs; assay type: binding; conditions: Activation Loop
T7 construct: purchased ActivX Technologies (KiNativ)
Method: as §1

[11] = test system: T8, IKKb; assay: KiNativ profiling in human PBMCs; assay type: binding
T8 construct: purchased ActivX Technologies (KiNativ)
Method: as §1

[12] = test system: T9, TLK2; assay: KiNativ profiling in human PBMCs; assay type: binding
T9 construct: purchased ActivX Technologies (KiNativ)
Method: as §1

[13] = test system: T10, IKKe; assay: KiNativ profiling in human PBMCs; assay type: binding; conditions: Lys1
T10 construct: purchased ActivX Technologies (KiNativ)
Method: as §1

[14] = test system: T11, LYN; assay: KiNativ profiling in human PBMCs; assay type: binding
T11 construct: purchased ActivX Technologies (KiNativ)
Method: as §1

[15] = test system: T12, PIK3C3; assay: KiNativ profiling in human PBMCs; assay type: binding; conditions: ATP
T12 construct: purchased ActivX Technologies (KiNativ)
Method: as §1

[16] = test system: T13, IRAK1; assay: KiNativ profiling in human PBMCs; assay type: binding; conditions: Lys2
T13 construct: purchased ActivX Technologies (KiNativ)
Method: as §1

[17] = test system: T14, MLKL; assay: KiNativ profiling in human PBMCs; assay type: binding; conditions: Lys1
T14 construct: purchased ActivX Technologies (KiNativ)
Method: as §1

[18] = test system: MARK1,MARK2; assay: KiNativ profiling in human PBMCs; assay type: binding; conditions: Lys1
Method: as §1

[19] = test system: T15, MSK1 domain1; assay: KiNativ profiling in human PBMCs; assay type: binding; conditions: Lys2
T15 construct: MSK1 domain1; purchased ActivX Technologies (KiNativ)
Method: as §1

[20] = test system: T16, CaMK1d; assay: KiNativ profiling in human PBMCs; assay type: binding
T16 construct: purchased ActivX Technologies (KiNativ)
Method: as §1

[21] = test system: T17, PIP4K2A; assay: KiNativ profiling in human PBMCs; assay type: binding; conditions: ATP
T17 construct: purchased ActivX Technologies (KiNativ)
Method: as §1

[22] = test system: T18, LKB1; assay: KiNativ profiling in human PBMCs; assay type: binding; conditions: Lys2
T18 construct: purchased ActivX Technologies (KiNativ)
Method: as §1

[23] = test system: T19, LATS1; assay: KiNativ profiling in human PBMCs; assay type: binding
T19 construct: purchased ActivX Technologies (KiNativ)
Method: as §1

[24] = test system: T20, smMLCK; assay: KiNativ profiling in human PBMCs; assay type: binding
T20 construct: purchased ActivX Technologies (KiNativ)
Method: as §1

[25] = test system: T21, LCK; assay: KiNativ profiling in human PBMCs; assay type: binding; conditions: Activation Loop
T21 construct: purchased ActivX Technologies (KiNativ)
Method: as §1

[26] = test system: MST4,YSK1; assay: KiNativ profiling in human PBMCs; assay type: binding; conditions: Lys2
Method: as §1

[27] = test system: T22, BARK1; assay: KiNativ profiling in human PBMCs; assay type: binding; conditions: Lys2
T22 construct: purchased ActivX Technologies (KiNativ)
Method: as §1

[28] = test system: T23, YANK3; assay: KiNativ profiling in human PBMCs; assay type: binding; conditions: Lys2
T23 construct: purchased ActivX Technologies (KiNativ)
Method: as §1

[29] = test system: T24, NEK1; assay: KiNativ profiling in human PBMCs; assay type: binding; conditions: Lys2
T24 construct: purchased ActivX Technologies (KiNativ)
Method: as §1

[30] = test system: T25, RIPK3; assay: KiNativ profiling in human PBMCs; assay type: binding; conditions: Lys2
T25 construct: purchased ActivX Technologies (KiNativ)
Method: as §1

[31] = test system: T26, PIK3CG; assay: KiNativ profiling in human PBMCs; assay type: binding; conditions: ATP
T26 construct: purchased ActivX Technologies (KiNativ)
Method: as §1

[32] = test system: T27, OSR1; assay: KiNativ profiling in human PBMCs; assay type: binding; conditions: Lys2
T27 construct: purchased ActivX Technologies (KiNativ)
Method: as §1

[33] = test system: KSR1,KSR2; assay: KiNativ profiling in human PBMCs; assay type: binding; conditions: Activation Loop
Method: as §1

[34] = test system: T28, RSK1 domain2; assay: KiNativ profiling in human PBMCs; assay type: binding; conditions: Lys2
T28 construct: RSK1 domain2; purchased ActivX Technologies (KiNativ)
Method: as §1

[35] = test system: T29, STLK5; assay: KiNativ profiling in human PBMCs; assay type: binding
T29 construct: purchased ActivX Technologies (KiNativ)
Method: as §1

[36] = test system: Rab12-pSer106; assay: Western Blot, cultured immune stimulated human PBMCs; assay type: cell-based; conditions: 100 nM, 1hr or 24 hrs
Method: PBMC were isolated from fresh blood collected within a maximal time of 4 hours after blood collection. Leucosep tubes (Greiner 227290) was added 15 ml Ficoll (GE Healthcare 17-440-03) and spun 30 s at 1000 × g. Blood was diluted 1:1 using D-PBS 1X (Gibco 14190), transfered to the Leucosep and centrifuged at 800 g for 15 min without brake. The upper layer corresponding to the diluted plasma was removed and the PBMC layer collected using a pipette or by pouring into a clean BD Falcon 50 ml tube. Cells were re-suspended and washed four times with 10 ml of D-PBS 1X (Gibco 14190) followed by centrifugation at 250 g for 10 min with brake at room temperature. The supernatant was discarded and the cells re-suspended in Complete medium equilibrated to 37 °C. The number of dead and living cells were counted on a Nucleocounter and used to calculate percent viability. […]
Cell pellets were resuspended and solubilized in 100 µL lysis buffer (50 mM Tris hydrochloride, 1 mM magnesium chloride, 1% Triton, 0.1% sodium dodecyl sulfate (SDS), pH 8.0) on ice for 20 minutes and then centrifuged at 20,000 g for 30 minutes at 4 °C. […] The proteins were visually detected by infrared imaging using Odyssey CLx (LI-COR, Nebraska, US). Membranes were scanned and band intensities were quantified using the Image Studio version 3.1.4 (LI-COR, Nebraska).

Cn1cc(-c2c[nH]c3ncnc(N4CCOCC4)c23)cc1C#N [PFE-360]
% Inhibition ([1]; 0.1µM, Lys1): 4.1% | % Inhibition ([1]; 0.1µM, Lys2): 8% | % Inhibition ([1]; 1µM, Lys1): -0.3% | % Inhibition ([1]; 1µM, Lys2): 1.4% | % Inhibition ([2]; 0.1µM): -0.2% | % Inhibition ([2]; 1µM): 13.2% | % Inhibition ([3]; 0.1µM, Lys1): 1% | % Inhibition ([3]; 0.1µM, Lys2): -2.5% | % Inhibition ([3]; 1µM, Lys1): -3% | % Inhibition ([3]; 1µM, Lys2): 0.6% | % Inhibition ([4]; 0.1µM, ATP Loop): 26.9% | % Inhibition ([4]; 0.1µM, Lys1): 5.3% | % Inhibition ([4]; 0.1µM, Lys2): -2.3% | % Inhibition ([4]; 1µM, ATP Loop): 29.8% | % Inhibition ([4]; 1µM, Lys1): 39.7% | % Inhibition ([4]; 1µM, Lys2): 22.4% | % Inhibition ([5]; 0.1µM): -0.3% | % Inhibition ([5]; 1µM): -7.3% | % Inhibition ([6]; 0.1µM): -16.2% | % Inhibition ([6]; 1µM): 16.7% | % Inhibition ([7]; 0.1µM, peptide DTVTIHSVGGTITILPTKTKPK): -4.6% | % Inhibition ([7]; 0.1µM, peptide SYPYLFKGLEDLHLDER): 7% | % Inhibition ([7]; 1µM, peptide DTVTIHSVGGTITILPTKTKPK): -3% | % Inhibition ([7]; 1µM, peptide SYPYLFKGLEDLHLDER): -11.6% | % Inhibition ([8]; 0.1µM): -0.7% | % Inhibition ([8]; 1µM): 8.2% | % Inhibition ([9]; 0.1µM): -0.3% | % Inhibition ([9]; 1µM): -5.7% | % Inhibition ([10]; 0.1µM): 6.8% | % Inhibition ([10]; 1µM): 8.2% | % Inhibition ([11]; 0.1µM, Lys1): -5% | % Inhibition ([11]; 0.1µM, Lys2): -6% | % Inhibition ([11]; 1µM, Lys1): -10.5% | % Inhibition ([11]; 1µM, Lys2): -31.2% | % Inhibition ([12]; 0.1µM, Lys1): -8.8% | % Inhibition ([12]; 0.1µM, Lys2): -5.5% | % Inhibition ([12]; 1µM, Lys1): -9.2% | % Inhibition ([12]; 1µM, Lys2): -10.6% | % Inhibition ([13]; 0.1µM): 2.3% | % Inhibition ([13]; 1µM): 7.7% | % Inhibition ([14]; 0.1µM, Activation Loop): 7.3% | % Inhibition ([14]; 0.1µM, Lys1): -30.4% | % Inhibition ([14]; 1µM, Activation Loop): 7.8% | % Inhibition ([14]; 1µM, Lys1): 7.4% | % Inhibition ([15]; 0.1µM, peptide TEDGGKYPVIFKHGDDLR): -2.7% | % Inhibition ([15]; 0.1µM, peptide TEDGGKYPVIFKHGDDLRQDQLILQIISLMDK): -22.4% | % Inhibition ([15]; 1µM, peptide TEDGGKYPVIFKHGDDLR): -7.9% | % Inhibition ([15]; 1µM, peptide TEDGGKYPVIFKHGDDLRQDQLILQIISLMDK): -43.1% | % Inhibition ([16]; 0.1µM): -6.1% | % Inhibition ([16]; 1µM): -11.8% | % Inhibition ([17]; 0.1µM): 2.3% | % Inhibition ([17]; 1µM): 5.2% | % Inhibition ([18]; 0.1µM): 6.2% | % Inhibition ([18]; 1µM): 3.2% | % Inhibition ([19]; 0.1µM): -7.8% | % Inhibition ([19]; 1µM): -5.1% | % Inhibition ([20]; 0.1µM, Lys1): 8% | % Inhibition ([20]; 0.1µM, Lys2): 6.4% | % Inhibition ([20]; 1µM, Lys1): -1.5% | % Inhibition ([20]; 1µM, Lys2): 20.2% | % Inhibition ([21]; 0.1µM, peptide AKELPTLKDNDFINEGQK): -3.9% | % Inhibition ([21]; 0.1µM, peptide YIIKTITSEDVAEMHNILK): -34.5% | % Inhibition ([21]; 1µM, peptide AKELPTLKDNDFINEGQK): -16.3% | % Inhibition ([21]; 1µM, peptide YIIKTITSEDVAEMHNILK): -40% | % Inhibition ([22]; 0.1µM): 6.5% | % Inhibition ([22]; 1µM): 0.4% | % Inhibition ([23]; 0.1µM, Lys1): 5.2% | % Inhibition ([23]; 0.1µM, Lys2): 3.2% | % Inhibition ([23]; 1µM, Lys1): 0.9% | % Inhibition ([23]; 1µM, Lys2): 0.1% | % Inhibition ([24]; 0.1µM, Lys1): 1.5% | % Inhibition ([24]; 0.1µM, Lys2): -14.6% | % Inhibition ([24]; 1µM, Lys1): -16.9% | % Inhibition ([24]; 1µM, Lys2): 3.3% | % Inhibition ([25]; 0.1µM): -11.6% | % Inhibition ([25]; 1µM): -0.3% | % Inhibition ([26]; 0.1µM): -0.2% | % Inhibition ([26]; 1µM): -16.6% | % Inhibition ([27]; 0.1µM): -4.8% | % Inhibition ([27]; 1µM): -29.7% | % Inhibition ([28]; 0.1µM): 8.2% | % Inhibition ([28]; 1µM): 13.5% | % Inhibition ([29]; 0.1µM): 5.9% | % Inhibition ([29]; 1µM): 2.6% | % Inhibition ([30]; 0.1µM): 16.1% | % Inhibition ([30]; 1µM): 27.3% | % Inhibition ([31]; 0.1µM): -1.2% | % Inhibition ([31]; 1µM): -7% | % Inhibition ([32]; 0.1µM): -20.9% | % Inhibition ([32]; 1µM): -5.1% | % Inhibition ([33]; 0.1µM): 19.7% | % Inhibition ([33]; 1µM): 10.8% | % Inhibition ([34]; 0.1µM): -5.4% | % Inhibition ([34]; 1µM): -11.2% | % Inhibition ([35]; 0.1µM, Activation Loop): -11% | % Inhibition ([35]; 0.1µM, Lys2): 10.9% | % Inhibition ([35]; 1µM, Activation Loop): -2.2% | % Inhibition ([35]; 1µM, Lys2): -15.8% | inhibition of Rab12 phosphorylation (Rab12-pSer106) [36]: not able to significant inhibit
